Results from US6521654B2, “Substituted imidazolidine derivatives, their preparation, their use and pharmaceutical preparations including them” (Aventis Pharma Deutschland GmbH, priority 1997, dated 2003).

Biological target: T1, interaction between VCAM-1 and VLA-4 (Homo sapiens, UniProt P05556+P13612)
T1 construct: supplied in their natural form as surface molecules on human U937 cells; host or cells: U937 cells carry endogenous VLA-4; The partner hVCAM-1(1-3)-IgG was made in house in transfected COS cells (ATCC CRL1651) and used as culture supernatant
Experiment: U937/VCAM-1 cell adhesion test (adhesion of U937 cells to hVCAM-1(1-3)-IgG)
Format: cell-based
Settings: concentration leading to 50% inhibition of adhesion of human U937 cells (ATCC CRL 1593) to hVCAM-1(1-3)-IgG
Source text: The test method used for the activity of the compounds of the formula I on the interaction between VCAM-1 and VLA-4 is the assay described below which is specific for this interaction. The cellular binding components, i.e., the VLA-4 integrins, are supplied in their natural form as surface molecules on human U937 cells (ATCC CRL 1593). which belong to the leucocytes group. The specific binding components used are genetically engineered recombinant soluble fusion proteins, consisting of the extracytoplasmatic domain of human VCAM-1 and the constant region of a human immunoglobulin of the subclass IgG1.
Assay for the Measurement of the Adhesion of U937 Cells (ATCC CRL 1593) to hVCAM-1(1-3)-IgG
1. Preparation of Human VCAM-1 (1-3)-IgG and Human CD4-IgG
A genetic construct for the expression of the extracellular domain of human VCAM-1, associated with the genetic sequence of the heavy chain of human immunoglobulin IgG1 (hinge, CH2 and CH3 regions), from Dr. Brian Seed, Massachusetts General Hospital. Boston, USA was employed (cf. Damle and Aruffo, Proc. Natl. Acad. Sci. USA 1991, 88, 6403-6407). The soluble fusion protein hVCAM-1(1-3)-IgG contained the three amino-terminal extracellular immunoglobulin-like domains of human VCAM-1 (Damle and Aruffo, Proc. Natl. Acad. Sci. USA 1991, 88, 6403-6407). CD4-IgG (Zettimeissl et al., DNA and Cell Biology 1990, 9, 347) served as a fusion protein for negative controls. The recombinant proteins were expressed as soluble proteins after DEAE/dextran-mediated DNA transfection in COS cells (ATCC CRL1651) according to standard procedures (Ausubel et al., Current Protocols in Molecular Biology, John Wiley & Sons, Inc., 1994).
2. Assay for the Measurement of the Adhesion of U937 Cells to hVCAM-1 (1-3)-IgG
2.1 96-well microtiter test plates (Nunc Maxisorb) were incubated at room temperature for 1 hour with 100 μl/well of a goat-anti-human IgG antibody solution (10 μg/ml in 50 mM tris, pH 9.5). After removal of the antibody solution, washing was carried out once with PBS.
2.2 150 μl/well of a blocking buffer (1% BSA in PBS) were incubated on the plates at room temperature for 0.5 hour. After removal of the blocking buffer, washing was carried out once with PBS.
2.3 100 μl per well of a cell culture supernatant of transfected COS cells were incubated on the plates at room temperature for 1.5 hours. The COS cells were transfected with a plasmid which codes for the three N-terminal immunoglobulin-like domains of VCAM-1, coupled to the Fc part of human IgG1 (hVCAM-1 (1-3)-IgG). The content of hVCAM-1 (1-3)-IgG was about 0.5-1 μg/ml. After removal of the culture supernatant, washing was carried out once with PBS.
2.4 The plates were incubated at room temperature for 20 minutes with 100 μl/well of Fc receptor blocking buffer (1 mg/ml of γ-globulin, 100 mM NaCl, 100 μM MgCl2, 100 μM MnCl2, 100 μM CaCl2, 1 mg/ml of BSA in 50 mM HEPES, pH 7.5). After removal of the Fc receptor blocking buffer, washing was carried out once with PBS.
2.5 20 μl of binding buffer (100 mM NaCl, 100 μM MgCl2, 100 μM MnCl2, 100 μM CaCl2, 1 mg/ml of BSA in 50 mM HEPES, pH 7.5) were initially introduced, and the substances to be tested were added in 10 μl of binding buffer and incubated for 20 minutes. The controls used were antibodies against VCAM-1 (BBT, No. BBA6) and against VLA-4 (immunotech, No. 0764).
2.6 U937 cells were incubated in Fc receptor blocking buffer for 20 minutes and then added by pipette in a concentration of 1×10^6/ml and in an amount of 100 μl per well ([…]).
2.7 The plates were slowly immersed at an angle of 45° in stop buffer (100 mM NaCl, 100 μM MgCl2, 100 μM MnCl2, 100 μM CaCl2 in 25 mM tris, pH 7.5) and shaken off. The process was repeated.
2.8 50 μl/well of a dye solution (16.7 μg/ml of Hoechst Dye 33258, 4% formaldehyde, 0.5% triton X-100 in PBS) were then incubated on the plates for 15 minutes. […]

T1 sequence (P13612 34-1032): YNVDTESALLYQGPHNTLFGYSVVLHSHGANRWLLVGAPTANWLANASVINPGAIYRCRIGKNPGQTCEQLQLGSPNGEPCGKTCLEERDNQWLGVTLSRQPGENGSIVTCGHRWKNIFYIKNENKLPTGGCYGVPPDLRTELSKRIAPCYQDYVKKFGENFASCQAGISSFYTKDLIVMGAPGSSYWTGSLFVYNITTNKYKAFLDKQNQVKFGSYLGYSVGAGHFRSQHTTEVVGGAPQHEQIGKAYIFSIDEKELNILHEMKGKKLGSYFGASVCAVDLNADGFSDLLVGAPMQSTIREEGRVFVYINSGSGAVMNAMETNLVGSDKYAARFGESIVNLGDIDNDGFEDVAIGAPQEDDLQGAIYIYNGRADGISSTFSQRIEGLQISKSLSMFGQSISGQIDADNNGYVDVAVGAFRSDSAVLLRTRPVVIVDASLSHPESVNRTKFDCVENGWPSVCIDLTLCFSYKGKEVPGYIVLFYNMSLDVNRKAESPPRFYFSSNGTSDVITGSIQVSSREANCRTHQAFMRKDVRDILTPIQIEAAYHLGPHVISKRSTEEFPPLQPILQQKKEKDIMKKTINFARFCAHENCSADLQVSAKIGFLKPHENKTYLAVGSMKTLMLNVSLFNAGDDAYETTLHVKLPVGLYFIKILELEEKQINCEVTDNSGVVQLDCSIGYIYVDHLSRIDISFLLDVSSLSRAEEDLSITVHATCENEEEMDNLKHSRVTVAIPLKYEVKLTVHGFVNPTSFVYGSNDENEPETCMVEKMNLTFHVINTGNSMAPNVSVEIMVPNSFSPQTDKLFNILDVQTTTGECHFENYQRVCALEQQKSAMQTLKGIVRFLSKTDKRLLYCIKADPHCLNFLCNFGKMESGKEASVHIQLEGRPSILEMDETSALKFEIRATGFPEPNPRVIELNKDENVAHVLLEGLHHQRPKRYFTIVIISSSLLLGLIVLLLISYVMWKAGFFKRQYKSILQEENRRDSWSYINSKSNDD
T1 sequence (P05556 21-798): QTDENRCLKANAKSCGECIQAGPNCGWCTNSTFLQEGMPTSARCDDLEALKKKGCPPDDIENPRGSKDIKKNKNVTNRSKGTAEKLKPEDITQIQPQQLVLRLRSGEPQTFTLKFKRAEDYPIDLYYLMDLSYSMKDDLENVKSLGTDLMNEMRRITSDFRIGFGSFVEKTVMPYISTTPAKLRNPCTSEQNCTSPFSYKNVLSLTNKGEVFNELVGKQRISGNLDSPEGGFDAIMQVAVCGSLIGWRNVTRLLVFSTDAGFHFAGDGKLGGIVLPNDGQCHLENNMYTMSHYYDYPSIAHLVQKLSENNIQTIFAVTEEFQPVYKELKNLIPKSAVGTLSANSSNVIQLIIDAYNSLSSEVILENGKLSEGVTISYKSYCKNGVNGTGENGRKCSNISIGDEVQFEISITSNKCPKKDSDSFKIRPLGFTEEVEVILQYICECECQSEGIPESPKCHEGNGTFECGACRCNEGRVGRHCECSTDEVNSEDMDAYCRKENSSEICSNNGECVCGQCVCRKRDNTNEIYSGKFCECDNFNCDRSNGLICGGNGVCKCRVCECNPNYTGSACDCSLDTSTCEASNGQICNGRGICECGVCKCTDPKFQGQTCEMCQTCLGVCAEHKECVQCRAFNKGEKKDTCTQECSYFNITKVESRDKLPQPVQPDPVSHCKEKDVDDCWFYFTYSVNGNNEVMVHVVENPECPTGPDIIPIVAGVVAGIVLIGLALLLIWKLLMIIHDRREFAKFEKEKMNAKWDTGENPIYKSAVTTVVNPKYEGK

IC50 [nM] | SMILES
600 | Cc1ccccc1NC(=O)Nc1ccc(CN2C(=O)N([C@@H](CC(C)C)C(=O)NCC(=O)O)C(=O)C2(C)C)cc1 [Example 10, 2-((S)-2-(4,4-Dimethyl-3-(4-(3-(2-methylphenyl)ureido)benzyl)-2,5-dioxoimidazolidin-1-yl)-2-(2-methylpropyl)acetylamino)acetic Acid]
10 | Cc1ccccc1NC(=O)Nc1ccc(CN2C(=O)N(CC(=O)N[C@@H](CC(=O)O)c3ccccc3)C(=O)C2(C)C)cc1 [Example 11, (S)-3-(2-(4,4-Dimethyl-3-(4-(3-(2-methylphenyl)ureido)benzyl)2,5-dioxoimidazolidin-1-yl)acetylamino)-3-phenylpropionic Acid]
30 | Cc1ccccc1NC(=O)Nc1ccc(CN2C(=O)N(CC(=O)NCCC(=O)O)C(=O)C2(C)C)cc1 [Example 15, 3-(2-(4,4-Dimethyl-3-(4-(3-(2-methylphenyl)ureido)benzyl)-2,5-dioxoimidazolidin-1-yl)acetylamino)propionic Acid]
55 | Cc1ccccc1NC(=O)Nc1ccc(CN2C(=O)N([C@@H](CC(C)C)C(=O)NCCC(=O)O)C(=O)C2(C)C)cc1 [Example 16, 3-((S)-2-(4,4-Dimethyl-3-(4-(3-(2-methylphenyl)ureido)benzyl)-2,5-dioxoimidazolidin-1-yl)-2-(2-methylpropyl)acetylamino)propionic Acid]
1.5 | Cc1ccccc1NC(=O)Nc1ccc(CN2C(=O)N([C@@H](CC(C)C)C(=O)N[C@@H](CC(=O)O)c3ccccc3)C(=O)C2(C)C)cc1 [Example 17, (S)-3-((S)-2-(4,4-Dimethyl-3-(4-(3-(2-methylphenyl)ureido)benzyl)-2,5-dioxoimidazolidin-1-yl)-2-(2-methylpropyl)acetylamino)-3-phenylpropionic Acid]
3 | CC(C)C[C@@H](C(=O)N[C@@H](CC(=O)O)c1ccccc1)N1C(=O)N(Cc2ccc(NC(=O)Nc3ccccc3)cc2)C(C)(C)C1=O [Example 19]
160 | Cc1ccccc1NC(=O)Nc1ccc(CN2CC(=O)N(CC(=O)N(C)[C@@H](CC(=O)O)C(=O)NC3C4CC5CC(C4)CC3C5)C2=O)cc1 (some centres unmarked) [Example 20]
520 | Cc1ccccc1NC(=O)Nc1ccc(CN2CC(=O)N(CC(=O)N[C@@H](CC(=O)O)C(=O)NC3C4CC5CC(C4)CC3C5)C2=O)cc1 (some centres unmarked) [Example 21]
4 | Cc1ccccc1NC(=O)Nc1ccc(CN2C(=O)N(CC(=O)N(C)[C@@H](CC(=O)O)C(=O)NC3C4CC5CC(C4)CC3C5)C(=O)C2(C)C)cc1 (stereo partly drawn) [Example 22, (2-(4,4-Dimethyl-3-(4-(3-(2-methylphenyl)ureido)benzyl)-2,5-dioxoimidazolidin-1-yl)-acetyl)-N-methyl-L-(2-adamantyl)aspartamide]
16 | CN(C(=O)CN1C(=O)N(Cc2ccc(NC(=O)Nc3ccccc3)cc2)C(C)(C)C1=O)[C@@H](CC(=O)O)C(=O)NC1C2CC3CC(C2)CC1C3 (some centres unmarked) [Example 23]
6 | CC1(C)C(=O)N(CC(=O)N[C@@H](CC(=O)O)C(=O)NC2C3CC4CC(C3)CC2C4)C(=O)N1Cc1ccc(NC(=O)Nc2ccccc2)cc1 (stereo partly drawn) [Example 24, (2-(4,4-Dimethyl-3-(4-(3-phenylureido)benzyl)-2,5-dioxoimidazolidin-1-yl)-acetyl)-L-(2-adamantyl)aspartamide]
6 | CC(C)C[C@@H](C(=O)N[C@@H](CC(=O)O)C(=O)NC1C2CC3CC(C2)CC1C3)N1C(=O)N(Cc2ccc(NC(=O)Nc3ccccc3)cc2)C(C)(C)C1=O (some centres unmarked) [Example 25]
2900 | Cc1ccccc1NC(=O)Nc1ccc(CN2CC(=O)N(CC(=O)N[C@H](C)CC(=O)O)C2=O)cc1 [Example 26, (R)-3-(2-(3-(4-(3-(2-Methylphenyl)ureido)benzyl)-2,5-dioxoimidazolidin-1-yl)-acetylamino)-3-methylpropionic Acid]
27 | Cc1ccccc1NC(=O)Nc1ccc(CN2C(=O)N([C@@H](CC(C)C)C(=O)N[C@@H](CC(=O)O)C(=O)O)C(=O)C2(C)C)cc1 [Example 27, ((S)-2-(4,4Dimethyl-3-(4-(3-(2-methylphenyl)ureido)benzyl)-2,5-dioxoimidazolidin-1-yl)-2-(2-methylpropyl)acetyl)-L-aspartic Acid]
110 | Cc1ccccc1NC(=O)Nc1ccc(CN2C(=O)N(CC(=O)N(C)[C@@H](CC(=O)O)C(=O)O)C(=O)C2(C)C)cc1 [Example 28, (2-(4,4-Dimethyl-3-(4-(3-(2-methylphenyl)ureido)benzyl)-2,5-dioxoimidazolidin-1-yl)-acetyl)-N-methyl-L-aspartic Acid]
890 | Cc1ccccc1NC(=O)Nc1ccc(CN2CC(=O)N(CC(=O)N[C@@H](CC(=O)O)c3ccccc3)C2=O)cc1 [Example 29, (S)3-(2-(3-(4-(3-(2-Methylphenyl)ureido)benzyl)-2,5-dioxoimidazolidin-1-yl)-acetylamino)-3-phenylpropionic Acid]
580 | C[C@H](CC(=O)O)NC(=O)CN1C(=O)CN(Cc2ccc(NC(=O)Nc3ccccc3Cl)cc2)C1=O [Example 30, (R)-3-(2-(3-(4-(3-(2-Chlorophenyl)ureido)benzyl)-2,5-dioxoimidazolidin-1-yl)-acetylamino)-3-methylpropionic Acid]
490 | Cc1cccc(NC(=O)Nc2ccc(CN3C(=O)N(CC(=O)NC(C)CC(=O)O)C(=O)C3(C)C)cc2)c1C (centres unmarked) [Example 34]
400 | COC(=O)c1ccccc1NC(=O)Nc1ccc(CN2C(=O)N(CC(=O)N[C@H](C)CC(=O)O)C(=O)C2(C)C)cc1 [Example 38]
1470 | CCc1cccc(C)c1NC(=O)Nc1ccc(CN2C(=O)N(CC(=O)N[C@@H](CC(=O)O)c3ccccc3)C(=O)C2(C)C)cc1 [Example 41]
470 | Cc1cccc(C)c1NC(=O)Nc1ccc(CN2C(=O)N(CC(=O)N[C@@H](CC(=O)O)c3ccccc3)C(=O)C2(C)C)cc1 [Example 42]
740 | Cc1ccc(NC(=O)Nc2ccc(CN3C(=O)N(CC(=O)N[C@@H](CC(=O)O)c4ccccc4)C(=O)C3(C)C)cc2)c(C)c1 [Example 43]
0.85 | Cc1ccccc1NC(=O)Nc1ccc(CN2C(=O)N([C@@H](CC(C)C)C(=O)N[C@@H](CC(=O)O)C(=O)N[C@H](C(=O)O)c3ccccc3)C(=O)C2(C)C)cc1 [Example 47, ((S)-2-(4,4-Dimethyl-3-(4-(3-(2-methylphenyl)ureido)benzyl)-2,5-dioxoimidazolidin-1-yl)-2-(2-methylpropyl)acetyl)-L-aspartyl-L-phenylglycine]
13 | CC(C)C[C@@H](C(=O)N[C@@H](CC(=O)O)C(=O)N[C@H](C(=O)O)c1ccccc1)N1C(=O)N(Cc2ccc(NC(=O)Nc3ccc(F)cc3)cc2)C(C)(C)C1=O [Example 49]
450 | CC(C)C[C@@H](C(=O)N[C@@H](CC(=O)O)C(=O)N[C@H](C(=O)O)c1ccccc1)N1C(=O)N(Cc2ccc(NC(=O)NCc3ccccc3)cc2)C(C)(C)C1=O [Example 58]
24.5 | COc1ccccc1NC(=O)Nc1ccc(CN2C(=O)N([C@@H](CC(C)C)C(=O)N[C@@H](CC(=O)O)C(=O)N[C@H](C(=O)O)c3ccccc3)C(=O)C2(C)C)cc1 [Example 61]
